Assay results taken from paper PMC3597730, “Novel Phenolic Inhibitors of Small/Intermediate-Conductance Ca^2+-Activated K^+ Channels, KCa3.1 and KCa2.3” (PLoS ONE, 2013).
Where “and” joins values, the source holds several entries; their conditions need not be identical. Identical values can stand only once. Entries after “also recorded” stand apart in the source; their conditions may differ. Like-named read-outs stand apart in the source and are kept apart here.

How the values were obtained:
[1] = test system: porcine coronary artery rings; assay: Isometric myography: U46619-induced contractions; conditions: for Δg: 0.2 µM U46619
Protocol: (§1) Myography on porcine coronary artery rings was performed as described in detail previously, [30]. In brief, left anterior descending arteries or posterior descending arteries were cut into rings (3 mm long) and rings were mounted onto a isometric force transducer (Pioden UF1, Graham Bell House, Canterbury, UK). The organ bath contained a 5 ml Krebs buffer maintained at 37°C and gassed with 95% O2/5% CO2. The composition of the Krebs buffer was as follows (in mM): NaCl 120, NaHCO3 24.5, CaCl2 2.4, KCl 4.7, MgSO4 1.2, KH2PO4 1 and glucose 5.6, pH 7.4. Each ring was passively stretched to an initial tension of 1 gr (10 mN). Changes in force were monitored and recorded on a computer using a Mac Lab System/8e program (AD Instruments Inc, Milford, Ma, USA), and digitalized at a sample rate of 0.5 sec.
(§2) To measure specifically endothelium-derived hyperpolarization-mediated vasorelaxation (EDH), the NO-synthase blocker, Nω-nitro-L-arginine (L-NNA, 300 µM), and the cyclooxygenase blocker, indomethacin (10 µM), were added to the buffer. Preparations were washed three times and were allowed to equilibrate for 40 min. Within this period, the incubation medium was renewed every 20 min. […] Ten min later, bradykinin (1 µM) was added for another 10 min, followed by washout (over at least 10 min). This protocol was repeated (2nd stimulation). Thereafter, we performed a 3rd round of pre-contraction and vasorelaxation, but using the vasospasmic thromboxane analogue U46619 (0.2 µM) as vasocontracting agent. At the end of the experiments, rings were allowed to contract maximally in a KCl (60 mM) buffer for 10 min followed by addition of the compounds. Finally, sodium nitroprusside (10 µM) was added to achieve maximal endothelium-independent vasorelaxation.
(§3) DMSO as the vehicle had no vasoactive effect per se on the tissue. Other compounds were dissolved in Milli-Q water.
(§4) For data analysis, we determined absolute increases in force to 5-HT, U46619, or 60 mM KCl. Bradykinin-induced relaxations were determined as % change of pre-contraction to either vasocontracting compound and relative to the fully relaxed state (in the absence of the vasocontracting agent).

[2] = test system: inward-rectifying K+ current (Kir) in U251 glioblastoma cells; assay: Whole-cell patch-clamp of native inward-rectifying K+ current in U251 cells; format: cell-based, human; conditions: 1 µM, at −100 mV, n = 5
[3] = molecular target: T1, cloned human KCa3.1 channel (Homo sapiens, UniProt O15554); assay: Inside-out patch recordings from hKCa3.1-overexpressing HEK293 cells; format: biochemical; conditions: inside-out patches
T1 construct: expressed in transfected cells; gift of Khaled Houamed, University of Chicago

[4] = molecular target: T2, hKv1.2 (Homo sapiens, UniProt P16389); assay: Whole-cell patch-clamp of cloned hKv1.2; format: cell-based
T2 construct: expressed in transfected cells; host or cells: B82 murine fibroblasts (Methods)
T2 sequence (P16389 whole entry): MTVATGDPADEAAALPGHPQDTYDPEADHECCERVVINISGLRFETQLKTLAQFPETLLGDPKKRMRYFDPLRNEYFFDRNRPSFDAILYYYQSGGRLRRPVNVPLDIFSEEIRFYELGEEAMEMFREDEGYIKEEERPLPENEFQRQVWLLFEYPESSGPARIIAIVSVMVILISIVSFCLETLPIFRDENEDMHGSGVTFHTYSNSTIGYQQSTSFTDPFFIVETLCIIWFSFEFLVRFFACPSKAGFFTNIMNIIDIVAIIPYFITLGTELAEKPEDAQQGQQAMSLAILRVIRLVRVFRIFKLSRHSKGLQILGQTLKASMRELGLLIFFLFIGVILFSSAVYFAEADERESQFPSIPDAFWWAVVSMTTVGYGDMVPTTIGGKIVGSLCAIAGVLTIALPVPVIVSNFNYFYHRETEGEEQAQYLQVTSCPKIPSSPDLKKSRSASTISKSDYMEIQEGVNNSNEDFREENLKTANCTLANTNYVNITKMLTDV

[5] = test system: T3, hERG; assay: Whole-cell patch-clamp of hERG tail currents in HEK293 cells; format: cell-based, human; conditions: human, HEK293 cells expressing hERG, pH 7.4, hERG
T3 construct: expressed in transfected cells; gift of Craig January, University of Wisconsin

[6] = test system: T4, hERG channels; assay: as above; format: cell-based, human; conditions: 13b 1 µM; caffeic acid, flufenamic acid 10 µM (Table S1)
T4 construct: expressed in transfected cells; gift of Craig January, University of Wisconsin

[7] = test system: mixed KCa3.1 and KCa2.3 currents in PCAEC; assay: Whole-cell patch-clamp of KCa currents in porcine coronary artery endothelial cells; format: cell-based
[8] = molecular target: T5, hKCa2.3 (Homo sapiens, UniProt Q9UGI6); assay: Inside-out single-channel experiments on hKCa2.3; format: biochemical
T5 construct: expressed in transfected cells; host or cells: COS7
T5 sequence (Q9UGI6 whole entry): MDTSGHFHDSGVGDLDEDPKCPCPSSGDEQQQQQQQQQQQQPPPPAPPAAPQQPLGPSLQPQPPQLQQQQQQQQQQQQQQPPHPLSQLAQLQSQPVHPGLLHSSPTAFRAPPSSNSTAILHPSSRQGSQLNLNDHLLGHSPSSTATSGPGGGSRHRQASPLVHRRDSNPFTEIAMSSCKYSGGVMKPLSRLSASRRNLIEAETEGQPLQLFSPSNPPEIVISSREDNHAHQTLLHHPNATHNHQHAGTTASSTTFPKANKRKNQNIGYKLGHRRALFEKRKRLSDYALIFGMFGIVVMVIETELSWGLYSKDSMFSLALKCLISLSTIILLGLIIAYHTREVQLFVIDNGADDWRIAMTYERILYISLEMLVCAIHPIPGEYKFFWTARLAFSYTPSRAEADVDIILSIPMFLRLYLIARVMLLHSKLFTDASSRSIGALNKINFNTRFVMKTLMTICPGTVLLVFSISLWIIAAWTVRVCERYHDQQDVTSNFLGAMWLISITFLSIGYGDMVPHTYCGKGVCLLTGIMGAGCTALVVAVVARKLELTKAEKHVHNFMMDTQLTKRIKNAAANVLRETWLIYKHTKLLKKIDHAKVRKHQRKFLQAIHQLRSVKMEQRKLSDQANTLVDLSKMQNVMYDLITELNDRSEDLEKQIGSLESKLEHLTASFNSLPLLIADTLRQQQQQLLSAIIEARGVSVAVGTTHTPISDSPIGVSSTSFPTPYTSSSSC

[9] = molecular target: T5, hKCa2.3; assay: Whole-cell patch-clamp of hKCa2.3 in COS7 cells; format: cell-based
[10] = molecular target: T6, KCa3.1 channels in 3T3 fibroblasts (Mus musculus, UniProt O89109); assay: Whole-cell patch-clamp of KCa3.1 currents in 3T3 fibroblasts; format: cell-based; conditions: for KCa3.1 blocking effect (in words): concentrations up to 50 µM as in Table 1
T6 construct: KCa3.1 channels in 3T3 fibroblasts; endogenous in cells; host or cells: 3T3-L1 mouse embryonic fibroblasts

[11] = test system: porcine coronary artery rings; assay: Isometric myography: endothelium-independent relaxation to sodium nitroprusside; conditions: pre-contracted by 60 mM K+
Protocol: as §1
as §2, with “vasorelaxation. […]” for “vasorelaxation.”
as §4

[12] = test system: T7, KCa1.1; assay: Whole-cell patch-clamp of KCa1.1 in U251 glioblastoma cells; format: cell-based, human; conditions: for KCa1.1 effect (in words): U251 glioblastoma cells, 13b 1 µM, caffeic acid 10 µM
T7 construct: KCa1.1 in human U251 glioblastoma cells; endogenous in cells; host or cells: U251 glioblastoma cells

[13] = test system: porcine coronary artery rings; assay: Isometric myography: contractions to 60 mM K+
Protocol: as §1
as §2, with “vasorelaxation. […]” for “vasorelaxation.”
as §4

[14] = test system: porcine coronary artery rings; assay: Isometric myography: 5-HT-induced contractions; conditions: for Δg, 1st stimulation / Δg, 2nd stimulation: 1 µM 5-HT
Protocol: as §1, §2, §3, §4

[15] = test system: T8, hKv1.3; assay: Whole-cell patch-clamp of cloned hKv1.3; format: cell-based, human
T8 construct: expressed in transfected cells

[16] = test system: porcine coronary artery rings; assay: Isometric myography: bradykinin-induced (EDH) relaxation; conditions: for % relaxation, 5-HT-precontraction / % relaxation, U46619-precontraction: 1 µM bradykinin
Protocol: as §1, §2, §3, §4

[17] = test system: 3T3 fibroblasts; assay: Cell proliferation assay (Janus B Green staining); format: cell-based, mouse; conditions: for change of proliferation vs. vehicle-treated controls: 3T3 cells
Protocol: Cell proliferation was spectrophotometrically assessed as described previously with some modifications. Briefly, 3T3 fibroblasts (1500 cells/well) were seeded in 96-well plates (TPP. Switzerland), cultured in DMEM containing 10% FCS (Lonza, Switzerland) with 13b or vehicle (DMSO), and formalin-fixed at days 0,1,2 and 3. To exclude the possibility that DMSO as vehicle affected the cell viability per se, final DMSO concentrations were the same for each concentration of 13b and the controls. Fixed cells were stained for 5 minutes with 50 ul/well of 0.3% Janus B Green dye (Acros Organics, Belgium) at room temperature with constant stirring followed by a de-staining step with water. Dye was eluted with 200 ul/well of 0.5 M HCl of hydrochloric acid and top-read measurements of absorbance were performed in a microplate reader (Sinergy HT, Biotek, USA) at 595 nm.

[18] = 13b 0.5 µM, SKA-31 1 µM, alone or combined
[19] = whole-cell, 3T3 fibroblasts, read-out: EC50 of KCa3.1 inhibition
[20] = SKA-31 10 µM, alone or with 13b 0.5 µM

O=C(OCc1cc(COC(=O)c2ccc(O)c(F)c2)cc(COC(=O)c2ccc(O)c(F)c2)c1)c1ccc(O)c(F)c1 [Compound 13b, [3,5-bis[(3-fluoro-4-hydroxy-benzoyl)oxymethyl]phenyl]methyl 3-fluoro-4-hydroxy-benzoate]
Δg [1, 18]: 2.8 ± 0.2 g | change of U46619 contraction vs. vehicle ([1]; 13b 0.5 µM, alone or with SKA-31 1 µM): +29% | Kir current, % of control [2]: 98±2% | EC50 ([3]; HEK293, 0.5 µM free Ca2+, read-out: EC50 of hKCa3.1 inhibition): 0.014 µM | Hill coefficient ([3]; hKCa3.1): ~1 | inhibition at 0.1 µM ([4]; 100 nM): 19% | remaining activity at 1 µM ([4]; hKv1.2, compound 1 µM, read-out: % of control at 1 µM): 11 ± 2% | EC50 ([4]; read-out: EC50 of hKv1.2 block): 0.55 ± 0.01 µM | activity at 1 µM ([5]; compound 1 µM, read-out: % of control at 1 µM): 94 ± 3% | hERG effect (in words) [6]: not blocked; also recorded: did not block | block of current potentiated by 1 µM SKA-31 (in words) ([7]; 1 µM 13b): almost fully blocked | KCa current, % of control ([7]; whole-cell, compound 1 µM): 14±7% | EC50 ([8]; inside-out single channel experiments, read-out: EC50 of hKCa2.3 inhibition): 0.000241 ± 0.000129 µM | Hill coefficient ([8]; inside-out, hKCa2.3): ~1 | remaining activity at 1 µM ([9]; COS-7, hKCa2.3, compound 1 µM, mean ± SEM, n ≥ 3, read-out: % of control at 1 µM): 4 ± 2% | Hill coefficient ([9]; hKCa2.3 whole-cell): ~1 | EC50 ([9]; whole-cell, COS7 cells, 1 µM free Ca2+, read-out: EC50 of hKCa2.3 inhibition): 0.00036 µM | remaining activity at 1 µM ([10]; KCa3.1 whole-cell current, 3T3 fibroblasts, 1 µM free Ca2+ in pipette, compound 1 µM, mean ± SEM, n ≥3, read-out: % of control at 1 µM): 4 ± 1% | EC50 ([10]; KCa3.1 whole-cell, 1 µM SKA-31, read-out: EC50 to suppress the SKA-31-induced current): 0.161 ± 0.121 µM | Hill coefficient ([10]; KCa3.1 whole-cell, 3T3 fibroblasts): ~1 | KCa3.1 blocking effect (in words) ([10]; whole-cell, 3T3 fibroblasts): Complete inhibition | EC50 [10, 19]: 0.019 µM | % relaxation to 10 µM SNP [11, 18]: 84±4% | KCa1.1 effect (in words) [12]: not blocked | % of control at 1 µM ([12]; hKCa1.1, compound 1 µM): 103 ± 3% | Δg, contraction to 60 mM K+ [13, 18]: 3.1 ± 0.3 g | Δg, 1st stimulation [14, 18]: 0.7 ± 0.1 g | Δg, 2nd stimulation [14, 18]: 0.7 ± 0.1 g | change of amplitude of 5-HT contraction vs. vehicle, 1st stimulation ([14]; 13b 0.5 µM): +74% | change of amplitude of 5-HT contraction vs. vehicle, 2nd stimulation ([14]; 13b 0.5 µM): +90% | hKv1.3 blocking effect (in words) ([15]; concentration of 10 µM as printed): not inhibited; also recorded: did not block | % of control at 1 µM ([15]; hKv1.3, compound 1 µM): 96.4 ± 0.2% | % relaxation, 5-HT-precontraction [16, 18]: 24±2% | % relaxation, U46619-precontraction [16, 18]: −1±1% | continued contraction of U46619-precontracted rings with bradykinin ([16]; 13b 0.5 µM): +1 % contraction | change of proliferation vs. vehicle ([17]; 0.5 µM, day 3): −23% | change of proliferation vs. vehicle ([17]; 2 µM, day 3): –20% | cytotoxicity (in words) ([17]; cultured 3T3 fibroblasts): not cytotoxic; also recorded: non-toxic | inhibition (reduction) of cell proliferation ([17]; day 3, 0.5 and 2 µM): 20%

O=C(O)/C=C/c1ccc(O)c(O)c1 [Caffeic Acid, (E)-3-(3,4-dihydroxyphenyl)propenoic acid]
hKv1.2 blocking effect (in words) ([4]; flufenamic acid and caffeic acid 10 and 50 µM, 13c 1 µM): did not block | remaining activity at 10 µM ([4]; hKv1.2, compound 10 µM, read-out: % of control at 10 µM): 100 ± 2% | remaining activity at 50 µM ([4]; hKv1.2, compound 50 µM, read-out: % of control at 50 µM): 97 ± 1% | activity at 10 µM ([5]; compound 10 µM, read-out: % of control at 10 µM): 97 ± 6% | hERG effect (in words) [6]: not blocked | mixed KCa3.1/KCa2.3 current, % of control ([7]; 50 µM, n = 1): 6% | remaining activity at 10 µM ([9]; COS-7, read-out: % of control at 10 µM): 108 ± 7% | remaining activity at 50 µM ([9]; COS-7, read-out: % of control at 50 µM): 97 ± 1% | KCa2.3 blocking effect (in words) ([9]; micromolar concentrations): no blocking effects | remaining activity at 10 µM ([10]; read-out: KCa3.1 current blocked, % of control): 28 ± 10% | KCa3.1 blocking effect (in words) ([10]; whole-cell, 3T3 fibroblasts): Complete inhibition | EC50 [10, 19]: 1.3 µM and 1 to 10 µM | KCa1.1 effect (in words) [12]: no blocking or activating effects | % of control at 10 µM ([12]; hKCa1.1, compound 10 µM): 103 ± 14% | change of proliferation vs. vehicle-treated controls ([17]; 25 µM): −27% | change of proliferation vs. vehicle-treated controls ([17]; 50 µM): −56%

Nc1nc2c(ccc3ccccc32)s1 [SKA-31, naphtho[1,2-d]thiazol-2-ylamine]
Δg [1, 18]: 1.9 ± 0.5 g | Δg [1, 20]: 1.7 ± 0.2 g | % relaxation to 10 µM SNP [11, 18]: 82±8% | % relaxation to 10 µM SNP [11, 20]: 80±5% | Δg, contraction to 60 mM K+ [13, 18]: 3.2 ± 0.5 g | Δg, contraction to 60 mM K+ [13, 20]: 2.5 ± 0.4 g | Δg, 1st stimulation [14, 18]: 0.4 ± 0.1 g | Δg, 2nd stimulation [14, 18]: 0.5 ± 0.1 g | Δg, 1st stimulation [14, 20]: 0.4 ± 0.1 g | Δg, 2nd stimulation [14, 20]: 0.23 ± 0.02 g | change of amplitude of 5-HT contraction vs. vehicle, 2nd stimulation [14, 20]: −44% | % relaxation, 5-HT-precontraction [16, 18]: 65±6% | % relaxation, U46619-precontraction [16, 18]: 5% and 5±1% | % relaxation, 5-HT-precontraction [16, 20]: 47±8% | % relaxation, U46619-precontraction [16, 20]: 10% and 10±2% | change of bradykinin relaxation vs. vehicle, 5-HT-precontracted rings [16, 18]: +110% | change of bradykinin relaxation vs. vehicle, 5-HT-precontracted rings [16, 20]: +52%
